Reference: patent US4933368A, “N-phenylbenzamide derivatives” (Godecke Aktiengesellschaft, priority 1983, dated 1990)

What was measured:
[1] = system: peripheral leukocytes and lymphocytes; conditions: conventional cytostatics and immunosuppressive agents; cited from earlier work
[2] = system: Electro-convulsion; experiment: Maximal electroconvulsion test; type: in vivo; conditions: Mus musculus, po; i.g., mice
[3] = Water solubility; type: physicochemical; conditions: dihydrochloride
Excerpt: Using a solution of HCl-gas in ethanol the compound can be converted to dihydrochloride, which is 4% water soluble.

SMILES	reattainment of normal hematological findings after discontinuation [1]	further results
O=P1(N(CCCl)CCCl)NCCCO1 (centres unmarked) [cyclophosphamide]	No comparable short-term extensive reattainment of normal hematological findings	
O=C1NC(=O)C(c2ccccc2)(c2ccccc2)N1 [Diphenylhydantoin, reference compound]		ED50 [2]: 22.5 mg/kg
Cl.Cl.Nc1ccc(C(=O)Nc2ccccc2N)cc1 [dihydrochloride, 4-Amino-N-(2'aminophenyl)-benzamide-dihydrochloride]		solubility [3]: 40 mg/mL
CN(Cc1cnc2nc(N)nc(N)c2n1)c1ccc(C(=O)N[C@@H](CCC(=O)O)C(=O)O)cc1 [methotrexate]	No comparable short-term extensive reattainment of normal hematological findings	
Cn1cnc([N+](=O)[O-])c1Sc1ncnc2nc[nH]c12 [Azathioprine]	No comparable short-term extensive reattainment of normal hematological findings	
